{"source": "the supplement of paper PMC10307832", "assay_in_all_cases": "relative viability (nuclei count vs DMSO), 5 days (fraction); higher = more cells survive", "key": {"[1]": {"tested_on": "NCI-H322M", "in_short": "(§1)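 Values are medians from duplicate plates. Each reflects relative viability, defined as the nuclei count of treated wells over that of vehicle wells. Lung cancer cell lines in 1536-well plates were pin-tool dosed one day after seeding with one drug alone or with a fixed anchor-drug dose plus five library-drug doses (not always all listed) in √10 steps, then fixed, stained and imaged at 4× after 5 days.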"}, "[2]": {"tested_on": "HOP-62", "in_short": "as §1"}, "[3]": {"tested_on": "HCC-44", "in_short": "as §1"}, "[4]": {"tested_on": "NCI-H520", "in_short": "as §1"}, "[5]": {"tested_on": "NCI-H1651", "in_short": "as §1"}, "[6]": {"tested_on": "NCI-H23", "in_short": "as §1"}, "[7]": {"tested_on": "LCLC-103H", "in_short": "as §1"}, "[8]": {"tested_on": "NCI-H2085", "in_short": "as §1"}, "[9]": {"tested_on": "NCI-H838", "in_short": "as §1"}, "[10]": {"tested_on": "ABC-1", "in_short": "as §1"}, "[11]": {"tested_on": "NCI-H1395", "in_short": "as §1"}, "[12]": {"tested_on": "NCI-H1666", "in_short": "as §1"}, "[13]": {"tested_on": "NCI-H647", "in_short": "as §1"}, "[14]": {"tested_on": "NCI-H1993", "in_short": "as §1"}, "[15]": {"tested_on": "NCI-H661", "in_short": "as §1"}, "[16]": {"tested_on": "CAL-12T", "in_short": "as §1"}, "[17]": {"tested_on": "COR-L23", "in_short": "as §1"}, "[18]": {"tested_on": "201T", "in_short": "as §1"}, "[19]": {"tested_on": "NCI-H2347", "in_short": "as §1"}, "[20]": {"tested_on": "NCI-H1355", "in_short": "as §1"}, "[21]": {"tested_on": "NCI-H2170", "in_short": "as §1"}, "[22]": {"tested_on": "NCI-H2228", "in_short": "as §1"}, "[23]": {"tested_on": "LC-2-ad", "in_short": "as §1"}}, "data": [{"smiles": "Cc1cnc(-c2cnc(NCCNc3ccc(C#N)cn3)nc2-c2ccc(Cl)cc2Cl)[nH]1", "note": "+ N=C(N)NC(=N)NCCc1ccccc1 [Phenformin] (partner 250 µM)", "values": [{"measurement": "relative viability", "setting": "[1]; first compound 0.08 µM", "value": 0.815}, {"measurement": "relative viability", "setting": "[1]; first compound 0.253 µM", "value": 0.725}, {"measurement": "relative viability", "setting": "[1]; first compound 0.8 µM", "value": 0.753}, {"measurement": "relative viability", "setting": "[1]; first compound 2.53 µM", "value": 0.931}, {"measurement": "relative viability", "setting": "[2]; first compound 0.08 µM", "value": 0.754}, {"measurement": "relative viability", "setting": "[2]; first compound 0.253 µM", "value": 0.596}, {"measurement": "relative viability", "setting": "[2]; first compound 0.8 µM", "value": 0.685}, {"measurement": "relative viability", "setting": "[2]; first compound 2.53 µM", "value": 0.427}, {"measurement": "relative viability", "setting": "[3]; first compound 0.08 µM", "value": 0.209}, {"measurement": "relative viability", "setting": "[3]; first compound 0.253 µM", "value": 0.192}, {"measurement": "relative viability", "setting": "[3]; first compound 0.8 µM", "value": 0.182}, {"measurement": "relative viability", "setting": "[3]; first compound 2.53 µM", "value": 0.139}, {"measurement": "relative viability", "setting": "[4]; first compound 0.08 µM", "value": 0.861}, {"measurement": "relative viability", "setting": "[4]; first compound 0.253 µM", "value": 0.628}, {"measurement": "relative viability", "setting": "[4]; first compound 0.8 µM", "value": 0.542}, {"measurement": "relative viability", "setting": "[4]; first compound 2.53 µM", "value": 0.641}, {"measurement": "relative viability", "setting": "[5]; first compound 0.08 µM", "value": 0.383}, {"measurement": "relative viability", "setting": "[5]; first compound 0.253 µM", "value": 0.494}, {"measurement": "relative viability", "setting": "[5]; first compound 0.8 µM", "value": 0.32}, {"measurement": "relative viability", "setting": "[5]; first compound 2.53 µM", "value": 0.324}, {"measurement": "relative viability", "setting": "[6]; first compound 0.08 µM", "value": 0.836}, {"measurement": "relative viability", "setting": "[6]; first compound 0.253 µM", "value": 0.69}, {"measurement": "relative viability", "setting": "[6]; first compound 0.8 µM", "value": 0.742}, {"measurement": "relative viability", "setting": "[6]; first compound 2.53 µM", "value": 0.782}, {"measurement": "relative viability", "setting": "[7]; first compound 0.08 µM", "value": 0.273}, {"measurement": "relative viability", "setting": "[7]; first compound 0.253 µM", "value": 0.342}, {"measurement": "relative viability", "setting": "[7]; first compound 0.8 µM", "value": 0.31}, {"measurement": "relative viability", "setting": "[7]; first compound 2.53 µM", "value": 0.3}, {"measurement": "relative viability", "setting": "[8]; first compound 0.08 µM", "value": 0.735}, {"measurement": "relative viability", "setting": "[8]; first compound 0.253 µM", "value": 0.688}, {"measurement": "relative viability", "setting": "[8]; first compound 0.8 µM", "value": 0.686}, {"measurement": "relative viability", "setting": "[8]; first compound 2.53 µM", "value": 0.691}, {"measurement": "relative viability", "setting": "[9]; first compound 0.08 µM", "value": 0.634}, {"measurement": "relative viability", "setting": "[9]; first compound 0.253 µM", "value": 0.601}, {"measurement": "relative viability", "setting": "[9]; first compound 0.8 µM", "value": 0.594}, {"measurement": "relative viability", "setting": "[9]; first compound 2.53 µM", "value": 0.709}, {"measurement": "relative viability", "setting": "[10]; first compound 0.08 µM", "value": 0.259}, {"measurement": "relative viability", "setting": "[10]; first compound 0.253 µM", "value": 0.246}, {"measurement": "relative viability", "setting": "[10]; first compound 0.8 µM", "value": 0.271}, {"measurement": "relative viability", "setting": "[10]; first compound 2.53 µM", "value": 0.195}, {"measurement": "relative viability", "setting": "[11]; first compound 0.08 µM", "value": 0.483}, {"measurement": "relative viability", "setting": "[11]; first compound 0.253 µM", "value": 0.424}, {"measurement": "relative viability", "setting": "[11]; first compound 0.8 µM", "value": 0.45}, {"measurement": "relative viability", "setting": "[11]; first compound 2.53 µM", "value": 0.431}, {"measurement": "relative viability", "setting": "[12]; first compound 0.08 µM", "value": 0.548}, {"measurement": "relative viability", "setting": "[12]; first compound 0.253 µM", "value": 0.563}, {"measurement": "relative viability", "setting": "[12]; first compound 0.8 µM", "value": 0.553}, {"measurement": "relative viability", "setting": "[12]; first compound 2.53 µM", "value": 0.572}, {"measurement": "relative viability", "setting": "[13]; first compound 0.08 µM", "value": 0.598}, {"measurement": "relative viability", "setting": "[13]; first compound 0.253 µM", "value": 0.362}, {"measurement": "relative viability", "setting": "[13]; first compound 0.8 µM", "value": 0.391}, {"measurement": "relative viability", "setting": "[13]; first compound 2.53 µM", "value": 0.28}, {"measurement": "relative viability", "setting": "[14]; first compound 0.08 µM", "value": 0.493}, {"measurement": "relative viability", "setting": "[14]; first compound 0.253 µM", "value": 0.477}, {"measurement": "relative viability", "setting": "[14]; first compound 0.8 µM", "value": 0.521}, {"measurement": "relative viability", "setting": "[14]; first compound 2.53 µM", "value": 0.535}, {"measurement": "relative viability", "setting": "[15]; first compound 0.08 µM", "value": 0.298}, {"measurement": "relative viability", "setting": "[15]; first compound 0.253 µM", "value": 0.295}, {"measurement": "relative viability", "setting": "[15]; first compound 0.8 µM", "value": 0.287}, {"measurement": "relative viability", "setting": "[15]; first compound 2.53 µM", "value": 0.314}, {"measurement": "relative viability", "setting": "[16]; first compound 0.08 µM", "value": 0.655}, {"measurement": "relative viability", "setting": "[16]; first compound 0.253 µM", "value": 0.511}, {"measurement": "relative viability", "setting": "[16]; first compound 0.8 µM", "value": 0.597}, {"measurement": "relative viability", "setting": "[16]; first compound 2.53 µM", "value": 0.579}, {"measurement": "relative viability", "setting": "[17]; first compound 0.08 µM", "value": 0.493}, {"measurement": "relative viability", "setting": "[17]; first compound 0.253 µM", "value": 0.449}, {"measurement": "relative viability", "setting": "[17]; first compound 2.53 µM", "value": 0.408}, {"measurement": "relative viability", "setting": "[18]; first compound 0.08 µM", "value": 0.469}, {"measurement": "relative viability", "setting": "[18]; first compound 0.8 µM", "value": 0.397}, {"measurement": "relative viability", "setting": "[18]; first compound 2.53 µM", "value": 0.473}, {"measurement": "relative viability", "setting": "[19]; first compound 0.08 µM", "value": 0.425}, {"measurement": "relative viability", "setting": "[19]; first compound 0.253 µM", "value": 0.5}, {"measurement": "relative viability", "setting": "[19]; first compound 0.8 µM", "value": 0.397}, {"measurement": "relative viability", "setting": "[19]; first compound 2.53 µM", "value": 0.477}, {"measurement": "relative viability", "setting": "[20]; first compound 0.08 µM", "value": 0.476}, {"measurement": "relative viability", "setting": "[20]; first compound 0.253 µM", "value": 0.45}, {"measurement": "relative viability", "setting": "[20]; first compound 0.8 µM", "value": 0.479}, {"measurement": "relative viability", "setting": "[20]; first compound 2.53 µM", "value": 0.446}, {"measurement": "relative viability", "setting": "[21]; first compound 0.08 µM", "value": 0.422}, {"measurement": "relative viability", "setting": "[21]; first compound 0.253 µM", "value": 0.351}, {"measurement": "relative viability", "setting": "[21]; first compound 0.8 µM", "value": 0.412}, {"measurement": "relative viability", "setting": "[21]; first compound 2.53 µM", "value": 0.348}, {"measurement": "relative viability", "setting": "[22]; first compound 0.08 µM", "value": 0.256}, {"measurement": "relative viability", "setting": "[22]; first compound 0.253 µM", "value": 0.357}, {"measurement": "relative viability", "setting": "[22]; first compound 0.8 µM", "value": 0.366}, {"measurement": "relative viability", "setting": "[22]; first compound 2.53 µM", "value": 0.228}, {"measurement": "relative viability", "setting": "[23]; first compound 0.08 µM", "value": 0.591}, {"measurement": "relative viability", "setting": "[23]; first compound 0.253 µM", "value": 0.515}, {"measurement": "relative viability", "setting": "[23]; first compound 2.53 µM", "value": 0.487}]}]}
